The values that follow come from ChEMBL document CHEMBL1201862, “PubChem BioAssay data set” (2004).

SMILES strings stand for the structures. The source made the active and inactive calls.

Experiment [1] has as its target Beta-adrenergic receptor kinase 1 (Homo sapiens, UniProt P25098). Briefly: aptamer displacement from bead-bound GRK2 – biochemical, cherry pick 1, bead flow cytometry, dose response (AID 504500).
For experiment [2], the target named is Likely tRNA 2'-phosphotransferase (Candida albicans (strain SC5314 / ATCC MYA-2876) (Yeast), UniProt Q5A7N4). Briefly: inhibition of Candida TPT1 enzyme activity – biochemical, fluorescence polarization, dose response (AID 2160).
Likely tRNA 2'-phosphotransferase, sequence (Q5A7N4 whole entry): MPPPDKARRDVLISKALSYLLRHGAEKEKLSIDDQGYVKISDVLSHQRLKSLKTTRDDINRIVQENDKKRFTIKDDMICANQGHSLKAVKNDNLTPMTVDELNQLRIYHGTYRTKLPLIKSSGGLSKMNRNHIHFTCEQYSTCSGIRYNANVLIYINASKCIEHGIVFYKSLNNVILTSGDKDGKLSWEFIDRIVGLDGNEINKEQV
Experiment [3] concerns the target Guanyl-specific ribonuclease T1 (Aspergillus oryzae (strain ATCC 42149 / RIB 40), UniProt P00651). Briefly: inhibition of ribonuclease T1 activity – biochemical, fluorescence polarization, 1536-well, counter-screen for TPT1 inhibitor project, dose response (AID 2167).
For experiment [4], the target named is Luciferin 4-monooxygenase (Photinus pyralis, UniProt P08659). Briefly: Counter Screen for Luciferase-based Assay Positives. [Related pubchem assays: 620, 618, 411 ].
Luciferin 4-monooxygenase, sequence (P08659 whole entry): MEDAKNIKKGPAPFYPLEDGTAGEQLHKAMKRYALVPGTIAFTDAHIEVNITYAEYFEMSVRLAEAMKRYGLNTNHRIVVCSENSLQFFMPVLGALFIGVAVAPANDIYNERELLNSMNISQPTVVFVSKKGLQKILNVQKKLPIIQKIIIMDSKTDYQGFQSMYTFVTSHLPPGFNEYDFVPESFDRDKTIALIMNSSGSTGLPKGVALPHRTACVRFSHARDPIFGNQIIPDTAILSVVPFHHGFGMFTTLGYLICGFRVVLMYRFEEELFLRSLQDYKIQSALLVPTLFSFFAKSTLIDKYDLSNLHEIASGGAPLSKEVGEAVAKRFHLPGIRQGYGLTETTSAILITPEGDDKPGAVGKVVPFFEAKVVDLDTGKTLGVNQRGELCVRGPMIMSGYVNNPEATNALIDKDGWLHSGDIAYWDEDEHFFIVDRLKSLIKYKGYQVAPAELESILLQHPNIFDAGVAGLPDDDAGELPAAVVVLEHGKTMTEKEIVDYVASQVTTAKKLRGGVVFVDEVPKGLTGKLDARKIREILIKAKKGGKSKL
Experiment [5] deals with HT-1080. Briefly: HT1080 cell viability loss – fluorescence readout (AID 620). It is filed as functional, cell-based. Conditions: Homo sapiens.
The test system of experiment [6] is HEK293. Briefly: EBV LMP1 TES2 canonical NF-kB signalling blockers – cell-based, HEK293, luciferase, cherry-pick, dose response (AID 588343). It is filed as functional. As to conditions: Homo sapiens.
Experiment [7] can be described thus: THP-1 cell cytotoxicity, dose response, cytotoxicity control for non-replicating M. tuberculosis project (AID 489025). It is filed as functional.
Experiment [8] concerns Vero. Put plainly: viability of Vero cells under compound – cytotoxicity control for flavivirus capping enzyme inhibitors (AID 588742). Type of experiment: functional. As to conditions: Chlorocebus sabaeus.
Experiment [9] addresses Genome polyprotein (Hepatitis C virus, UniProt Q2Q167). Put plainly: disruption of hepatitis C core self-association – biochemical, TR-FRET, dose response (AID 2159).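 Also: blocks dimerization of HCV core protein measured by TR-FRET between tagged core106 pairs.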 Set-up: species or system Hepacivirus hominis.
A short description of experiment [10]: viability loss in THP-1 monocytes – THP-1 cells, cytotoxicity control for Vif-APOBEC3G degradation inhibitor project, dose response (AID 1117359). It is filed as functional. Conditions: THP-1.
Experiment [11] can be described thus: A High Throughput Confirmatory Assay used to Identify Novel Compounds that Inhibit Mycobacterium Tuberculosis in the absence of Glycerol. Type of experiment: functional.
The nature of experiment [12]: cells. It is filed as functional.
In experiment [13] the target is Matrix metalloproteinase-14 (Homo sapiens, UniProt P50281). Put plainly: Dose Response confirmation of uHTS hits for a small molecule inhibitors of MT1-MMP activation in a fluorescence assay set 2. Type of experiment: functional.
Experiment [14] is described as follows: Luminescence Cell-Based Dose Retest to Confirm Inhibitors of Cancer Stem Cells. [Related pubchem assays (depositor defined):AID2717, AID2721]. Type of experiment: functional. As to conditions: Homo sapiens.
Experiment [15] concerns the target Genome polyprotein (dengue virus type 2, UniProt P29990). Briefly: flavivirus cap methylation enzyme inhibition – biochemical, confirmation dose response, primary screen (AID 588689). It is filed as functional.
The target in experiment [16] is T1, Protein Tat (Human immunodeficiency virus type 1 group M subtype B (isolate HXB2)(HIV-1), UniProt P04608).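 Also: tat binding to TAR RNA read out by fluorescence polarization.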
T1 sequence (P04608 whole entry): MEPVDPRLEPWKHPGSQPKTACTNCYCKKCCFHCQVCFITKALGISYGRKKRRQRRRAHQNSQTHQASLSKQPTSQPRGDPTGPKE
It is filed as functional.

Experiment [17] is described as follows: microbe, parasite or virus in culture. Type of experiment: functional. As to conditions: Mycobacterium tuberculosis.
Experiment [18] addresses DNA (cytosine-5)-methyltransferase 1 (Homo sapiens, UniProt P26358). Briefly: inhibition of DNA methylation by DNMT1 – biochemical, fluorescent molecular beacon, confirmation (AID 602386). It is filed as functional.
In experiment [19] the target is Beta-2 adrenergic receptor (Homo sapiens, UniProt P07550). Briefly: ADRB2 activation measured by internalization – cell-based, FAP fluorogen, flow cytometry, cherry pick 1, dose response (AID 588763). It is filed as functional.
Beta-2 adrenergic receptor, sequence (P07550 whole entry): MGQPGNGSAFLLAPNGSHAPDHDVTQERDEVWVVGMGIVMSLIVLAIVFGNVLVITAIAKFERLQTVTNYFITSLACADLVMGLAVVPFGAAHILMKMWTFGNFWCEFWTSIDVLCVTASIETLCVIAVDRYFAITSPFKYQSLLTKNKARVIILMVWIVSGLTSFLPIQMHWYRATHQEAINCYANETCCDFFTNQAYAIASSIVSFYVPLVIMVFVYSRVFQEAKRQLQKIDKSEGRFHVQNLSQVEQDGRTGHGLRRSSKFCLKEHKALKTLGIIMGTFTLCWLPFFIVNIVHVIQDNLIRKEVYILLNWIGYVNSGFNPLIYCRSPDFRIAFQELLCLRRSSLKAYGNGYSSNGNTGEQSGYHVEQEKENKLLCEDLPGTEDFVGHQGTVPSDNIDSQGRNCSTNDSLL
Experiment [20] has as its target FAD-linked sulfhydryl oxidase ALR (Homo sapiens, UniProt P55789). Briefly: ALR-catalysed DTT oxidation blockers – biochemical, H2O2 detection, luminescence, cherry-pick, dose response (AID 493248).
For experiment [21], the target named is T2, Hexokinase HKDC1 (Homo sapiens, UniProt Q2TB90).
T2 sequence (Q2TB90 whole entry): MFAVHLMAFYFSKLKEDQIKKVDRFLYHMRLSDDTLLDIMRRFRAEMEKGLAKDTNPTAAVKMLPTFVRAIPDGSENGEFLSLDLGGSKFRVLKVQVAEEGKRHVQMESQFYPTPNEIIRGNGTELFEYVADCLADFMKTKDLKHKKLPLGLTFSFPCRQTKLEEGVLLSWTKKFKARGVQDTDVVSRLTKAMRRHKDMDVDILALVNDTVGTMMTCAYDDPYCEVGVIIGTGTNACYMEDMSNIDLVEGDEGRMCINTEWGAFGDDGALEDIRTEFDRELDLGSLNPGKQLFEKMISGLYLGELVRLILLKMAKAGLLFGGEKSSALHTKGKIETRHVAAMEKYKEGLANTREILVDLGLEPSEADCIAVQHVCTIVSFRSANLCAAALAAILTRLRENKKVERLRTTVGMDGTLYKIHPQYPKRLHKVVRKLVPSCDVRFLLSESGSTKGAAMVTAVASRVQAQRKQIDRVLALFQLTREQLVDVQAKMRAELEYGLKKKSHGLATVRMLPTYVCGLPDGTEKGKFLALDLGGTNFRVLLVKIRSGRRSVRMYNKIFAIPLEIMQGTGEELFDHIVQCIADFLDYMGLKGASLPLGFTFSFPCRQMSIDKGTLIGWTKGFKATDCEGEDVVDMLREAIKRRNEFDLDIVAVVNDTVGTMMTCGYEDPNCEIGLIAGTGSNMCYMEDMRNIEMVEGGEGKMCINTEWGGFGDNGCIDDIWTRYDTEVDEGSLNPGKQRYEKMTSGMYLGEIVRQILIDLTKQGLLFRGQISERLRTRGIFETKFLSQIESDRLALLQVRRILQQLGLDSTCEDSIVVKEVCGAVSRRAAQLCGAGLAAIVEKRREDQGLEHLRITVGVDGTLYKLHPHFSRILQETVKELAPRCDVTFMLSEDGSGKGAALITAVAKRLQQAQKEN
Put plainly: SAR analysis of small molecule inhibitors of hexokinase domain containing I (HKDC1). [Related pubchem assays (depositor defined):AID493160, AID493190]. Type of experiment: functional.

Experiment [22] addresses T3, Hexokinase-1 (Homo sapiens, UniProt P19367).
T3 sequence (P19367 whole entry): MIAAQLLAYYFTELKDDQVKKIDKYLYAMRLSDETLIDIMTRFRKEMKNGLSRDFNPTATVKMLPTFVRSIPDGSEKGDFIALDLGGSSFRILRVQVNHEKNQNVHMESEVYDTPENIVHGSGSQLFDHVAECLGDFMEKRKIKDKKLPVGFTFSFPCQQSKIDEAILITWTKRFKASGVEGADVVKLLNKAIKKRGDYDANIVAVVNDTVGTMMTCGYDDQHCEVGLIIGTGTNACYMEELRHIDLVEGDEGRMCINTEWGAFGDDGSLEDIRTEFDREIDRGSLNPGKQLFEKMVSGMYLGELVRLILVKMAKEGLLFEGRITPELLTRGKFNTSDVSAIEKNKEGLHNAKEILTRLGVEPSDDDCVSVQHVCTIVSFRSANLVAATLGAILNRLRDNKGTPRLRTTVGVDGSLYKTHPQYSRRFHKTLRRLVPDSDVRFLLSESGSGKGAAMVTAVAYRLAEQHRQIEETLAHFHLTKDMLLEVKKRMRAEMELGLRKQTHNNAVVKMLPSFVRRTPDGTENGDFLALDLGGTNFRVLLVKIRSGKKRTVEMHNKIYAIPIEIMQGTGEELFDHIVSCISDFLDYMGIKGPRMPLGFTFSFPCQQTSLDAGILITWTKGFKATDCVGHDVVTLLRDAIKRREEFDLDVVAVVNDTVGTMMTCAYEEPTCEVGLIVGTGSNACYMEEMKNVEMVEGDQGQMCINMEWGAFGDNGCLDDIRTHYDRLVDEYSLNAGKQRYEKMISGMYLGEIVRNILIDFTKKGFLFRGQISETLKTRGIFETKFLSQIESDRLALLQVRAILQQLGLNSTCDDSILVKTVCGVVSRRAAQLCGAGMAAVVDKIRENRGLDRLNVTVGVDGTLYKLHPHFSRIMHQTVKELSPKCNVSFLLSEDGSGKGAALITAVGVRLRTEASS
Briefly: SAR analysis of small molecule inhibitors of hexokinase domain containing I (HKDC1) in the hexokinase 1 selectivity assay. [Related pubchem assays (depositor defined):AID493160, AID493190]. It is filed as functional.

FAD-linked sulfhydryl oxidase ALR, sequence (P55789 whole entry): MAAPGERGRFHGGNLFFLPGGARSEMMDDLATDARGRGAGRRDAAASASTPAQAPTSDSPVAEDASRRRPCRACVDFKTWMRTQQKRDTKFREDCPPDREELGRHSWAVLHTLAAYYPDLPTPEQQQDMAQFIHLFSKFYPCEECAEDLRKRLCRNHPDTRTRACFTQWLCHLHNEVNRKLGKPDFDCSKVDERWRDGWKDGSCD
DNA (cytosine-5)-methyltransferase 1, sequence (P26358 whole entry): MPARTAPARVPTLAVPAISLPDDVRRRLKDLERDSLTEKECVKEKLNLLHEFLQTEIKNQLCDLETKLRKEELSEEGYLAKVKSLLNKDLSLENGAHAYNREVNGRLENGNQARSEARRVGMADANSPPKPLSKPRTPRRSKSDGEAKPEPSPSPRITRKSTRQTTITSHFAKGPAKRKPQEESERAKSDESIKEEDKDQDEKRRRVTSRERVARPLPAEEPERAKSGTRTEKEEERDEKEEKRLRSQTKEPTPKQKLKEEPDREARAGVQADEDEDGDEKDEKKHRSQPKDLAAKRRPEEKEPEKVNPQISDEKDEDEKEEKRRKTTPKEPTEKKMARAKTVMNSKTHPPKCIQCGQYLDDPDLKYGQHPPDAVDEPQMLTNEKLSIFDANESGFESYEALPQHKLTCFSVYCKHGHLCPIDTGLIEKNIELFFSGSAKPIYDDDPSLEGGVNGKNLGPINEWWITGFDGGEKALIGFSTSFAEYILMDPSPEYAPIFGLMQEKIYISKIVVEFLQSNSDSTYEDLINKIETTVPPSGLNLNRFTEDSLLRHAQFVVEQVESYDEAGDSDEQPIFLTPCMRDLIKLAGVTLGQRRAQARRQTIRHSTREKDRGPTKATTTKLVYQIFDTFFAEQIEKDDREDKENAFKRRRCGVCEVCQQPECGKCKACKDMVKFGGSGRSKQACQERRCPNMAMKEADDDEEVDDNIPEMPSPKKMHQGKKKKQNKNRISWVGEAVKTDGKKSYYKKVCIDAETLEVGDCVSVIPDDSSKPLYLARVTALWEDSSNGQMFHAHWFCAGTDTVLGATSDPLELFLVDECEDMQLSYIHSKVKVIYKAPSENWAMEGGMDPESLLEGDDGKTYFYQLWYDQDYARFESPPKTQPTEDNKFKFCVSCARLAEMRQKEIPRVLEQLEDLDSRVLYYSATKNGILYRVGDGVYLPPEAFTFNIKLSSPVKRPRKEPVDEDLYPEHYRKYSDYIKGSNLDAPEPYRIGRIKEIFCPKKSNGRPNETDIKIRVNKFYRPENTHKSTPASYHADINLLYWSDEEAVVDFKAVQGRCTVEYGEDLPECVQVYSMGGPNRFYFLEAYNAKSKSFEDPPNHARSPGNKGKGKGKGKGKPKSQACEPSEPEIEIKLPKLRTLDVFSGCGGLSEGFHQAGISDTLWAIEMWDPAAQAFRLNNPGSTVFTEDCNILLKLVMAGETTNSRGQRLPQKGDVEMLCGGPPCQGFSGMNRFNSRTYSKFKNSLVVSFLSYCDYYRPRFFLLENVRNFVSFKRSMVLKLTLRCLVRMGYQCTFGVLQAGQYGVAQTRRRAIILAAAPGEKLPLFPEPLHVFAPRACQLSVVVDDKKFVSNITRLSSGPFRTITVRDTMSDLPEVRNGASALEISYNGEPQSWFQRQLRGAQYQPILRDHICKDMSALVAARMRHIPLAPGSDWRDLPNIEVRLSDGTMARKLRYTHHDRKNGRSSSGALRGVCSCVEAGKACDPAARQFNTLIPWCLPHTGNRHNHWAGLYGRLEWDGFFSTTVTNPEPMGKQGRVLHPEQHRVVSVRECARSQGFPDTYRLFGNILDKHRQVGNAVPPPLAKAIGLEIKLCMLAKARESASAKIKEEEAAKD
Genome polyprotein (Hepatitis C virus, UniProt Q2Q167), sequence (Q2Q167 whole entry): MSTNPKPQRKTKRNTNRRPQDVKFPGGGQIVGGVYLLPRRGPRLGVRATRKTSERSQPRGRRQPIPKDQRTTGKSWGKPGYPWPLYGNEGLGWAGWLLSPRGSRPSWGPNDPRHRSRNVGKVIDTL
Beta-adrenergic receptor kinase 1, sequence (P25098 whole entry): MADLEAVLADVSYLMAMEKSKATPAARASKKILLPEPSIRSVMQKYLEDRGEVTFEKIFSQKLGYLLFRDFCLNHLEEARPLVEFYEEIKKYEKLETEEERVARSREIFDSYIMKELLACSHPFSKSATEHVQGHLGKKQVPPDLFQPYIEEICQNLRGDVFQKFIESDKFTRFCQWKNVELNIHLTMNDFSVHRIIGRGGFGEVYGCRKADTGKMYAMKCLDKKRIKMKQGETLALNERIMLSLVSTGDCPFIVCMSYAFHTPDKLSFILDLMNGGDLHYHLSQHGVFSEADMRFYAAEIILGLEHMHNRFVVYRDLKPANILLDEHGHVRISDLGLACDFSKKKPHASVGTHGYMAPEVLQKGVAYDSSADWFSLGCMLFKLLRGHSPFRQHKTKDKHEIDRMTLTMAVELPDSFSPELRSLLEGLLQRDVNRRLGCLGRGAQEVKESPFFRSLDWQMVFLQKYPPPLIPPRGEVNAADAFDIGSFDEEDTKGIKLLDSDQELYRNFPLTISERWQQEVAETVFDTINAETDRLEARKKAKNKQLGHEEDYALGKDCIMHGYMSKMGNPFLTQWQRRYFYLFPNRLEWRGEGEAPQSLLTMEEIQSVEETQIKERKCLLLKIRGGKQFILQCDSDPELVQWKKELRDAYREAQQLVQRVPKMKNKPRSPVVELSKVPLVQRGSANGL
Guanyl-specific ribonuclease T1, sequence (P00651 whole entry): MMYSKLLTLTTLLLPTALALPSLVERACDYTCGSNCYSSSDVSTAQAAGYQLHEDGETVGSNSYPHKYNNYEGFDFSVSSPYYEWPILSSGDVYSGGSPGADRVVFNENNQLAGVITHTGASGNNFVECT
Genome polyprotein (dengue virus type 2, UniProt P29990), sequence (P29990 2492-3391 limits assumed): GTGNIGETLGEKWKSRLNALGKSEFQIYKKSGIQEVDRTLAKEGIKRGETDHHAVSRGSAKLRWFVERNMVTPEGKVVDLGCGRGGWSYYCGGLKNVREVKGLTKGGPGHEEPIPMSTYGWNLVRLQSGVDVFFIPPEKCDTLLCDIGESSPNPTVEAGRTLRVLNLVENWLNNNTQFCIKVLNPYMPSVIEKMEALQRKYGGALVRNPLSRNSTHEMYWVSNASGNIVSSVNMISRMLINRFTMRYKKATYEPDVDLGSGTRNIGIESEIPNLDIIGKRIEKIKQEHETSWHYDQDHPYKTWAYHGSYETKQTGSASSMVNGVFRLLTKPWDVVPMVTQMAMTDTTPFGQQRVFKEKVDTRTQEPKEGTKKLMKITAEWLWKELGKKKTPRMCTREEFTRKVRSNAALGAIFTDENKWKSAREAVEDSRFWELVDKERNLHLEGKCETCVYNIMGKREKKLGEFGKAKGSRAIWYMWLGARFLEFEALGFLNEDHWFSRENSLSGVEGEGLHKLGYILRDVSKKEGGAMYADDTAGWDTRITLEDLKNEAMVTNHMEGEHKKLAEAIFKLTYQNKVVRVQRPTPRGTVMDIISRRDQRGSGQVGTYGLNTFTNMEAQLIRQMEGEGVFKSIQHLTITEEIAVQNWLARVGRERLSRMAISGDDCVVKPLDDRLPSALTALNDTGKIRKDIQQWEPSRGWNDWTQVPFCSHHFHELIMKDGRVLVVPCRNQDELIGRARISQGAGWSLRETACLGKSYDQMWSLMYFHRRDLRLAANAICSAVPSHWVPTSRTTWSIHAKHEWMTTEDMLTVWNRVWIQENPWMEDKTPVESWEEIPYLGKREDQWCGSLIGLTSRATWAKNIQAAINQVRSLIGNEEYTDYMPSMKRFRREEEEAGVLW

Take `NC(=O)c1cc[n+](CC2=C(C(=O)O)N3C(=O)[C@@H](NC(=O)[C@@H](c4ccccc4)S(=O)(=O)[O-])[C@H]3SC2)cc1` [CEFSULODIN SODIUM]: the EC50 in [1] is 70 nM (active). Also, the IC50 in [2] is 1.69 µM (active); in experiment [3], > 55.7 µM (not active).
On to `Cc1nc(Nc2nc3ccccc3o2)nc2c1CCC2`, for which the concentration giving a half-maximal response (EC50) in [4] is 5.88 µM (active); in [5], > 50 µM (not active). In addition, in experiment [6], the half-maximal activity concentration (AC50) is 2.54 µM (active).
As to `Cn1cccc1/C=C1/C(=O)NC(=S)N(Cc2ccc(F)cc2)C1=O`, the CC50 in experiment [7] is 14.5 µM (active); in experiment [8], > 40 µM (active); in [10], > 40 µM (active); in experiment [17], 23 µM (active). For the same molecule, the IC50 in experiment [9] is > 49.8 µM (not active); in experiment [11] it was > 100 µM (active); in experiment [12] it was 33.9 µM (active); in experiment [13], 55.3 µM (inactive); in [15] it was > 100 µM (active); in experiment [16], > 100 µM (active). The IC50 in [18] was 3.55 µM (active). Also, the half-maximal activity concentration (AC50) in [14] was 1.18 µM (active).
Consider `CCCCN(CCCC)c1nc(OC)nc(-n2nnc(C(C)=O)c2C)n1`, for which, in experiment [19], the EC50 was 12.1 µM (inactive).
For `N#Cc1ccc(CSc2nnc(NC(=O)c3ccc(O)nc3)s2)cc1`, in experiment [20], the AC50 is 679 nM (active). Further, the IC50 in [21] and in [22] was > 80 µM (inactive) in each case.
